Measured values published in patent US5756423A, “Method of controlling plants by inhibition of farnesyl pyrophosphate synthase” (Zeneca Limited, priority 1997, dated 1998).
Where two headings read alike, the source gives them in different places.

What was measured:
[1] = tested on: farnesyl pyrophosphate synthase in daffodil chromoplasts; assay: inhibition of farnesyl pyrophosphate synthase in daffodil chromoplasts (14C-isopentenyl pyrophosphate incorporation); type: biochemical, Narcissus pseudonarcissus; conditions: unit inferred, IC50 values in nM, read-out: IC50
Method in brief: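 Daffodil chromoplasts in pH 7.7 sucrose/MgCl2/HEPES buffer with cysteine, NaF and BSA, started with ~3 micromolar 14C-isopentenyl pyrophosphate, 30 min at 30° C. Butanol-extractable radioactivity counted by scintillation; % residual activity calculated against zero-time and end-point no-inhibitor controls.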

[2] = tested on: wild oat (Avena fatua) (AVEFA); assay: post-emergent herbicidal test, wild oat; type: in vivo; conditions: Avena fatua, post-emergence, read-out: AVEFA percent control
Method in brief: (§1)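 Read-out is percent control, 0 (growth as untreated) to 100 (complete kill), covering emergence, stunting, malformation and chlorosis, scored 17–21 days post-spray. Application rates were 1 and 4 kg/ha to young greenhouse-grown seedlings.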

[3] = tested on: barnyard grass (Enchinochloa crusgalli) (ECHCG); assay: post-emergent herbicidal test, barnyard grass; type: in vivo; conditions: Echinochloa crus-galli, post-emergence, read-out: ECHCG percent control
Method in brief: as §1

[4] = tested on: green foxtail (Setaria viridis) (SETVI); assay: post-emergent herbicidal test, green foxtail; type: in vivo; conditions: Setaria viridis, post-emergence, read-out: SETVI percent control
Method in brief: as §1

[5] = tested on: velvetleaf (Abutilon theophrasti) (ABUTH); assay: post-emergent herbicidal test, velvetleaf; type: in vivo; conditions: Abutilon theophrasti, post-emergence, read-out: ABUTH percent control
Method in brief: as §1

[6] = tested on: morningglory (Ipomoea spp.) (IPOSS); assay: post-emergent herbicidal test, morningglory; type: in vivo; conditions: Ipomoea, post-emergence, read-out: IPOSS percent control
Method in brief: as §1

[7] = tested on: wild mustard (Brassica kaber), also known as Sinapis arvensis (SINAR); assay: post-emergent herbicidal test, wild mustard; type: in vivo; conditions: Brassica, post-emergence, read-out: SINAR percent control
Method in brief: as §1

[8] = tested on: yellow nutsedge (Cyperus esculentus) (CYPES); assay: post-emergent herbicidal test, yellow nutsedge; type: in vivo; conditions: Cyperus, post-emergence, read-out: CYPES percent control
Method in brief: as §1

[9] = post-emergent, 1.0 kg/ha (*), 17-21 days after application
[10] = post-emergent, 4.0 kg/ha, 17-21 days after application

Compound	IC50 ([1]; Table I)	IC50 ([1]; Table II)	pest or weed control at 1000 g/ha [2, 9]	pest or weed control at 1000 g/ha [3, 9]	pest or weed control at 1000 g/ha [4, 9]	pest or weed control at 1000 g/ha [5, 9]	pest or weed control at 1000 g/ha [6, 9]	pest or weed control at 1000 g/ha [7, 9]	pest or weed control at 1000 g/ha [8, 9]	pest or weed control at 4000 g/ha [2, 10]	pest or weed control at 4000 g/ha [3, 10]	pest or weed control at 4000 g/ha [4, 10]	pest or weed control at 4000 g/ha [5, 10]	pest or weed control at 4000 g/ha [6, 10]	pest or weed control at 4000 g/ha [7, 10]	pest or weed control at 4000 g/ha [8, 10]	also measured
CN(C)CC(P(=O)(O)O)P(=O)(O)O [Compound 8]	2900 nM	2900 nM															pest or weed control at 4000 g/ha [2]: 5%; pest or weed control at 4000 g/ha [3]: 5%; pest or weed control at 4000 g/ha [4]: 50%; pest or weed control at 4000 g/ha [5]: 0%; pest or weed control at 4000 g/ha [6]: 5%; pest or weed control at 4000 g/ha [7]: 85%; pest or weed control at 4000 g/ha [8]: 0%
CCCCN(CCCC)CC(P(=O)(O)O)P(=O)(O)O [Compound 24]	190 nM	190 nM	98%	98%	85%	0%	5%	30%	10%								
O=P(O)(O)C(CN1CCCC1)P(=O)(O)O [Compound 4]		38 nM	60%	90%	100%	20%	20%	100%	5%								
O=P(O)(O)C(CNNc1c(Cl)cc(C(F)(F)F)cc1Cl)P(=O)(O)O [Compound 36]	> 500000 nM	> 500000 nM								0%	0%	0%	0%	0%	0%	0%	
CCCCNCC(P(=O)(O)O)P(=O)(O)O [Compound 14]	347 nM	347 nM	70%	90%	95%	20%	10%	85%	15%								
CCNCC(P(=O)(O)O)P(=O)(O)O [Compound 20]	150 nM	150 nM															pest or weed control at 1000 g/ha [2]: 40%; pest or weed control at 1000 g/ha [3]: 60%; pest or weed control at 1000 g/ha [4]: 50%; pest or weed control at 1000 g/ha [5]: 0%; pest or weed control at 1000 g/ha [6]: 0%; pest or weed control at 1000 g/ha [7]: 10%; pest or weed control at 1000 g/ha [8]: 15%
O=P(O)(O)C(CN1CC=CCC1)P(=O)(O)O [Compound 45]	26 nM	26 nM	100%	100%	100%	90%	100%	100%	50%								
CC1CCCCN1CC(P(=O)(O)O)P(=O)(O)O (stereo not shown) [Compound 10]	83 nM	83 nM								100%	85%	85%	50%	90%	100%	5%	
CC(C)CNCC(P(=O)(O)O)P(=O)(O)O [Compound 12]	150 nM	150 nM								100%	98%	98%	98%	90%	100%	70%	
O=P(O)(O)C(CNC1CCCCC1)P(=O)(O)O [Compound 5]	425 nM	425 nM								98%	98%	98%	60%	60%	100%	10%	
CC1CCCC1NCC(P(=O)(O)O)P(=O)(O)O (stereo not shown) [Compound 50]	232 nM	232 nM	50%	60%	85%	5%	5%	85%	5%								
CC(O)CNCC(P(=O)(O)O)P(=O)(O)O (stereo not shown) [Compound 66]		58 nM	90%	95%	98%	90%	75%	100%	60%								
